What was measured:
RS4;11 cells = test: Cell proliferation assay (MTS), RS4;11 cells, 72 h; format: cell-based; details: Homo sapiens, RS4-11, 72 h
From the text: Cell Proliferation Assays
MTS testing kit was purchased from Promega. The RPMI-1640, Fetal bovine serum and Penicillin-Streptomycin were purchased from Gibco. Dimethyl sulfoxide (DMSO) was purchased from Sigma.
To investigate whether a compound is able to inhibit the activity of BCL-2 in cells, a mechanism-based assay using DOHH2 (DSMZ No.® ACC 47) and RS4;11 (ATCC® CRL-1873™) cell was developed. In this assay, inhibition of Bcl-2 was detected by the inhibition of DOHH2 cells proliferation. DOHH2 cells were cultured in culture flasks to 40-80% confluence in RPMI-1640 plus 10% fetal bovine serum. Cells were collected and plated onto 96-well plates at desired cell density (5000 cells/well). Plates were incubated overnight at 37° C., with 5% CO2 to adhere. Compounds were added to the plates, and the final compound concentrations were 10000, 3333, 1111, […], 124, 41, 14, 4.6 and 1.5 nM. Plates plated with DOHH2 or RS4;11 cells were placed at 37° C., with 5% CO2 for 120 h (DOHH2) or 72 h (RS4;11) respectively. 20 μl MTS/100 μl medium mixture solution were added to each well and incubate the plates for exactly 2 hours. The reaction was stopped by adding 25 μl 10% SDS per well. Measure absorbance at 490 nm and 650 nm (reference wavelength). IC50 was calculated using GraphPad Prism 5.0.
Select compounds prepared as described above were assayed according to the biological procedures described herein.

DOHH2 cells = test: Cell proliferation assay (MTS), DOHH2 cells, 120 h; format: cell-based; details: Homo sapiens, DOHH-2, 120 h
In short: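 Proliferation was scored by MTS (2 h, then SDS stop, A490 with 650 nm reference) and IC50 derived. Compound ran at nine final concentrations from 1.5 to 10000 nM. DOHH2 were incubated 120 h and RS4;11 72 h, both plated at 5000 cells/well in RPMI-1640 plus 10% FBS.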

| SMILES | IC50 (RS4;11 cells) | IC50 (DOHH2 cells) |
| --- | --- | --- |
| COc1ccc([C@@H]2COc3cc(S(=O)(=O)NC(=O)c4ccc(N5CCN(CC6=C(c7ccc(Cl)cc7)CC(C)(C)CC6)CC5)cc4Oc4cnc5[nH]ccc5c4)cc([N+](=O)[O-])c3N2)nc1 [Example 2-179, (R)-2-((1H-pyrrolo[2,3-b]pyridin-5-yl)oxy)-4-(4-((4′-chloro-5,5-dimethyl-3,4,5,6-tetra-hydro-[1,1′-biphenyl]-2-yl)methyl)pieprazin-1-yl)-N-((3-(5-methoxypyridin-2-yl)-5-ni-tro-3,4-dihydro-2H-benzo[b][1,4]oxazin-7-yl)sulfonyl)benzamide] | 0.018 µM | 0.38 µM |
| CC1(C)CCC(CN2CCN(c3ccc(C(=O)NS(=O)(=O)c4cc5c(c([N+](=O)[O-])c4)N[C@@H](Cc4ccccc4)CO5)c(Oc4cnc5[nH]ccc5c4)c3)CC2)=C(c2ccc(Cl)cc2)C1 [Example 2-132, (S)-2-((1H-pyrrolo[2,3-b]pyridin-5-yl)oxy)-N-((3-benzyl-5-nitro-3,4-dihydro-2H-benzo [b][1,4]oxazin-7-yl)sulfonyl)-4-(4-((4′-chloro-5,5-dimethyl-3,4,5,6-tetrahydro-[1,1′-biphenyl]-2-yl)meth-yl)piperazin1-yl)benzamide] | 0.002 µM | 0.028 µM |
| COC(=O)N1CCN(C[C@H]2COc3cc(S(=O)(=O)NC(=O)c4ccc(N5CCN(CC6=C(c7ccc(Cl)cc7)CC(C)(C)CC6)CC5)cc4Oc4cnc5[nH]ccc5c4)cc([N+](=O)[O-])c3N2)CC1 [Example 2-98, methyl (S)-4-((7-(N-(2-((1H-pyrrolo[2,3-b]pyridin-5-y)oxy)-4-(4-((4′-chloro-5,5-dimethyl-3,4,5,6-tetrahydro[1,1′-biphenyl]-2-yl)methyl)piperazin-1-yl)benzoyl)sulfamoyl)-5-nitro-3,4-dihydro-2H-benzo[b][1,4]oxazin-3-yl)methyl)piperazine-1-carboxylate] | 0.017 µM | 0.038 µM |
| CN(C)CC[C@H]1Cc2cc(S(=O)(=O)NC(=O)c3ccc(N4CCN(CC5=C(c6ccc(Cl)cc6)CC(C)(C)CC5)CC4)cc3Oc3cnc4[nH]ccc4c3)cc([N+](=O)[O-])c2N1 [Example 1-18, (R)-2-((1H-pyrrolo[2,3-b]pyridin-5-yl)oxy)-4-(4-((4′-chloro-5,5-dimethyl-3,4,5,6-tetra-hydro-[1,1′-biphenyl]-2-yl)methyl)piperazin-1-yl)-N-((2-(2-(dimethylamino)ethyl)-7-nitroindolin-5-yl)sulfonyl)benzamide] | 0.018 µM | 0.005 µM |
| CC1(C)CCC(CN2CCN(c3ccc(C(=O)NS(=O)(=O)c4cc5c(c([N+](=O)[O-])c4)N[C@@H](CC(=O)N4CCOCC4)C5)c(Oc4cnc5[nH]ccc5c4)c3)CC2)=C(c2ccc(Cl)cc2)C1 [Example 1-26, (R)-2-((1H-pyrrolo[2,3-b]pyridin-5-yl)oxy)-4-(4-((4′-chloro-5,5-dimethyl-3,4,5,6-tetra-hydro-[1,1′-biphenyl]-2-yl)methyl)piperazin-1-yl)-N-((2-(2-morpholino-2-oxoethyl)-7-nitroindolin-5-yl)sulfonyl)benzamide] | 0.012 µM | 0.102 µM |
| CC1(C)CCC(CN2CCN(c3ccc(C(=O)NS(=O)(=O)c4cc5c(c([N+](=O)[O-])c4)N[C@H](CCN4CCOCC4)C5)c(Oc4cnc5[nH]ccc5c4)c3)CC2)=C(c2ccc(Cl)cc2)C1 [Example 1-2, (S)-2-((1H-pyrrolo[2,3-b]pyridin-5-yl)oxy)-4-(4-((4′-chloro-5,5-dimethyl-3,4,5,6-tetrahydro-[1,1′-biphenyl]-2-yl)methyl)piperazin-1-yl)-N-((2-(2-morpholinoethyl)-7-nitroindolin-5-yl)sulfonyl)benzamide] | 0.038 µM | 0.079 µM |
| CN1CCN(C[C@H]2CNc3cc(S(=O)(=O)NC(=O)c4ccc(N5CCN(CC6=C(c7ccc(Cl)cc7)CC(C)(C)CC6)CC5)cc4Oc4cnc5[nH]ccc5c4)cc([N+](=O)[O-])c3N2)CC1 [Example 4-3, (R)-2-((1H-pyrrolo[2,3-b]pyridin-5-yl)oxy)-4-(4-((4′-chloro-5,5-dimethyl-3,4,5,6-tetra-hydro-[1,1′-biphenyl]-2-yl)methyl)piperazin-1-yl)-N-((2-((4-methylpiperazin-1-yl)methyl)-8-nitro-1,2,3,4-tetrahydroquinoxalin-6-yl)sulfonyl)benzamide] | 0.046 µM | 0.038 µM |

The next lines start with results.

| IC50 (RS4;11 cells) | SMILES | IC50 (DOHH2 cells) |
| --- | --- | --- |
| 0.072 µM | CC1(C)CCC(CN2CCN(c3ccc(C(=O)NS(=O)(=O)c4cc5c(c([N+](=O)[O-])c4)N[C@@H](CN4CC(O)C4)CO5)c(Oc4cnc5[nH]ccc5c4)c3)CC2)=C(c2ccc(Cl)cc2)C1 [Example 2-24, (S)-2-((1H-pyrrolo[2,3-b]pyridin-5-yl)oxy)-4-(4-((4′-chloro-5,5-dimethyl-3,4,5,6-tetra-hydro-[1,1′-biphenyl]-2-yl)methyl)piperazin-1-yl)-N-((3-((3-hydroxyazetidin-1-yl)meth-yl)-5-nitro-3,4-dihydro-2H-benzo[b][1,4]oxazin-7-yl)sulfonyl)benzamide] | 0.115 µM |
| 0.01 µM | CC1(C)CCC(CN2CCN(c3ccc(C(=O)NS(=O)(=O)c4cc5c(c([N+](=O)[O-])c4)N[C@H](C4CCNCC4)CO5)c(Oc4cnc5[nH]ccc5c4)c3)CC2)=C(c2ccc(Cl)cc2)C1 [Example 2-226, (R)-2-((1H-pyrrolo[2,3-b]pyridin-5-yl)oxy)-4-(4-((4′-chloro-5,5-dimethyl-3,4,5,6-tetra-hydro-[1,1′-biphenyl]-2-yl)methyl)piperazin-1-yl)-N-((5-nitro-3-(piperidin-4-yl)-3,4-dihydro-2H-benzo[b][1,4]oxazin-7-yl)sulfo-nyl)benzamide] | 0.048 µM |
| 0.022 µM | C[C@@H]1CNc2c(cc(S(=O)(=O)NC(=O)c3ccc(N4CCN(CC5=C(c6ccc(Cl)cc6)CC(C)(C)CC5)CC4)cc3Oc3cnc4[nH]ccc4c3)cc2[N+](=O)[O-])O1 [Example 2-100, (R)-2-((1H-pyrrolo[2,3-b]pyridin-5-yl)oxy)-4-(4-((4′-chloro-5,5-dimethyl-3,4,5,6-tetra-hydro[1,1′-biphenyl]-2-yl)methyl)piperazin-1-yl)-N-((2-methyl-5-nitro-3,4-dihydro-2H-benzo[b][1,4]oxazin-7-yl)sulfonyl)benza-mide] | 0.031 µM |
| 0.003 µM | C[C@@H]1COCCN1C[C@@H]1COc2cc(S(=O)(=O)NC(=O)c3ccc(N4CCN(CC5=C(c6ccc(Cl)cc6)CC(C)(C)CC5)CC4)cc3Oc3cnc4[nH]ccc4c3)cc([N+](=O)[O-])c2N1 [Example 2-81, 2-((1H-pyrrolo[2,3-b]pyridin-5-yl)oxy)-4-(4-((4′-chloro-5,5-dimethyl-3,4,5,6-tetra-hydro-[1,1′-biphenyl]-2-yl)methyl)piperazin-1-yl)-N-(((R)-3-(((R)-3-methylmorpholino)meth-yl)-5-nitro-3,4-dihydro-2H-benzo[b][1,4]oxazin-7-yl)sulfonyl)benzamide] | 0.014 µM |
| 0.05 µM | CC1(C)CCC(CN2CCN(c3ccc(C(=O)NS(=O)(=O)c4cc5c(c([N+](=O)[O-])c4)N[C@@H](CN=S4(=O)CCOCC4)CO5)c(Oc4cnc5[nH]ccc5c4)c3)CC2)=C(c2ccc(Cl)cc2)C1 [Example 2-77, (S)-2-((1H-pyrrolo[2,3-b]pyridin-5-yl)oxy)-4-(4-((4′-chloro-5,5-dimethyl-3,4,5,6-tetra-hydro-[1,1′-biphenyl]-2-yl)methyl)piperazin-1-yl)-N-((5-nitro-3-(((4-oxido-1,4λ^6-oxa-thian-4-ylidene)amino)methyl)-3,4-dihydro-2H-benzo[b][1,4]oxazin-7-yl)sulfonyl)ben-zamide] | 0.602 µM |
| 0.064 µM | CC1(C)CCC(CN2CCN(c3ccc(C(=O)NS(=O)(=O)c4cc5c(c([N+](=O)[O-])c4)N[C@H](CCN=S4(=O)CCOCC4)CO5)c(Oc4cnc5[nH]ccc5c4)c3)CC2)=C(c2ccc(Cl)cc2)C1 [Example 2-74, (R)-2-((1H-pyrrolo[2,3-b]pyridin-5-yl)oxy)-4-(4-((4′-chloro-5,5-dimethyl-3,4,5,6-tetra-hydro-[1,1′-biphenyl]-2-yl)methyl)piperazin-1-yl)-N-((5-nitro-3-(2-((4-oxido-1,4λ^6-ox-athian-4-lidene)amino)ethyl)-3,4-dihydro-2H-benzo[b][1,4]oxazin-7-yl)sulfonyl)ben-zamide] | 0.108 µM |
| 0.009 µM | CC1(C)CCC(CN2CCN(c3ccc(C(=O)NS(=O)(=O)c4cc5c(c([N+](=O)[O-])c4)N[C@H](C4CCCCC4)CO5)c(Oc4cnc5[nH]ccc5c4)c3)CC2)=C(c2ccc(Cl)cc2)C1 [Example 2-238, (R)-2-((1H-pyrrolo[2,3-b]pyridin-5-yl)oxy)-4-(4-((4′-chloro-5,5-dimethyl-3,4,5,6-tetra-hydro-[1,1′-biphenyl]-2-yl)methyl)piperazin-1-yl)-N-((3-cyclohexyl-5-nitro-3,4-dihydro-2H-benzo[b][1,4]oxazin-7-yl)sulfo-nyl)benzamide] | 0.018 µM |

From patent publication US11091478B2 (Fochon Pharmaceuticals, Ltd., priority 2017, dated 2021)
